Laboratory results taken from publication PMC6105804, “In Vitro and In Vivo Evaluation of APX001A/APX001 and Other Gwt1 Inhibitors against Cryptococcus” (Antimicrobial Agents and Chemotherapy, 2018).
In brackets after ≈: the same amount, converted by molar mass. Read-outs that look alike come from different tables or passages of the source.

Tests used:
C. albicans 90028 = assay: Broth microdilution susceptibility testing (CLSI M27-A3); assay type: cell-based, Candida albicans; settings: Candida albicans, 90028; read-out: MIC, C. albicans 90028
From the text: (§1) C. neoformans strains H99, DUMC 118.00, and DUMC 158.03 and C. gattii strains R272 and RSA-MW-3515 were obtained from Duke University. C. albicans 90028, A. fumigatus MYA3626, C. neoformans 14116, C. neoformans 76484, and the pathogenic Cryptococcus reference strains panel (ATCC MP-11) were obtained from the American Type Culture Collection (ATCC; Manassas, VA, USA). The ATCC MP-11 panel consists of strains representing eight molecular types and three subtypes of C. neoformans and C. gattii.
(§2) To establish the antimicrobial activity of the APX001A analogs, broth microdilution susceptibility testing was performed according to Clinical and Laboratory Standards Institute (CLSI) guidelines M27-A3 ([47]) for yeasts and M38-A2 for molds ([48]). APX001A and analogs were first diluted in DMSO to obtain intermediate dilutions. These were further diluted in microtiter plates to obtain a final concentration of 2 to 0.002 μg/ml. One microliter of DMSO was added to the no-drug control wells. The solutions were mixed on a plate shaker for 10 min, and the plates were incubated at 35°C for 40 to 48 h (C. albicans, A. fumigatus) and 72 h (C. neoformans). The minimum concentration that led to a 50% reduction in fungal growth compared to that for the control (determined with the aid of a reading mirror) was determined as the MIC for C. albicans and C. neoformans. The minimum concentration that led to the shortening of hyphae compared to the hyphal growth in DMSO control wells was determined as the minimum effective concentration (MEC) for A. fumigatus (as read for the echinocandins). The use of the MIC and MEC endpoints for APX001A (formerly E1210) against yeasts and molds, respectively, has been described previously ([19][–][21]). For the cryptococcal synergy studies, APX001A and APX2020 MIC values were read at 50% inhibition.

C. gattii = assay: as above; assay type: cell-based; settings: Cryptococcus gattii
From the text: as §1, §2

C. neoformans [1] = system: C. neoformans; parameters: method as in PMID 15078612; settings: U.S. isolates; cited from earlier work
A. fumigatus MYA3626 = assay: Broth microdilution susceptibility testing for molds (CLSI M38-A2); assay type: cell-based; settings: Aspergillus fumigatus, MYA3626; read-out: MIC or MEC for A. fumigatus MYA3626
From the text: as §1, §2

[2] = system: FLC-susceptible and FLC-nonsusceptible/resistant strains of C. neoformans and C. gattii; assay: Broth microdilution, summary over the 18-strain Cryptococcus collection; assay type: cell-based, Cryptococcus neoformans and Cryptococcus gattii; settings: 18 strains of C. neoformans and C. gattii
Experimental: as §2, with “The minimum concentration that led to the shortening of hyphae compared to the hyphal growth in DMSO control wells was determined as the minimum effective concentration (MEC) for A. fumigatus (as read for the echinocandins).” left out

C. neoformans strain H99 [3] = assay: Delayed-treatment model of cryptococcal meningitis; assay type: in vivo, Cryptococcus neoformans; settings: treatment from 24 h after infection, QD 7 days; APX2096 60 mg/kg i.p. + ABT, AMB 3 mg/kg i.p.
Experimental: As in the previous mouse model, 100-mg/kg ABT (p.o.) was administered 2 h prior to each APX2096 dose (n = 5 mice/cohort). Infection was initiated on day 1, and treatment was initiated 24 h later (day 2) rather than 1 h later. Treatments were administered for 7 days (the final dose was administered on day 8), and mice were sacrificed on day 9 for CFU enumeration.
Male CD-1 mice were infected with 5.4 × 10^4 CFU per mouse via lateral tail vein injection. […] A dose of 100-mg/kg ABT was administered orally 2 h prior to each APX2096 dose. Mice were sacrificed 24 h after the last dose, and the brain and left lung were homogenized and cultured for quantitative determination of the tissue burden (number of CFU per gram of tissue). Fungal burden data were log10 transformed and evaluated using Kruskal-Wallis tests with Dunn's multiple-comparison test for post hoc analysis (Prism software, v5; GraphPad Software, Inc., San Diego, CA). A P value of ≤0.05 was considered statistically significant (*, P ≤ 0.05; **, P ≤ 0.01). The 95% confidence interval (CI) is presented.
Fungal burden data were log10 transformed and evaluated using Kruskal-Wallis tests with Dunn's multiple-comparison test for post hoc analysis (Prism software, v5; GraphPad Software, Inc., San Diego, CA). A P value of ≤0.05 was considered statistically significant.

C. neoformans [4] = assay: Broth microdilution susceptibility testing (CLSI M27-A3); assay type: cell-based, Cryptococcus neoformans; settings: Cryptococcus neoformans
From the text: as §1, §2

C. neoformans strain H99 [5] = assay: Murine cryptococcal meningitis model with ABT, dose-response study; assay type: in vivo, Cryptococcus neoformans
Experimental: A dose-response study was performed with APX2096 and APX2097 to confirm the observed activity. In this study, QD doses of 7.5, 20, and 60 mg/kg were evaluated in conjunction with the administration of ABT. A 60-mg/kg dose QD without ABT was also evaluated as a control.
FIG 3 Dose-response of APX2096 and APX2097 in a murine model of cryptococcal meningitis in conjunction with ABT administration. ABT at 100 mg/kg was administered orally to male CD-1 mice at 2 h prior to each APX compound dose. Mice were injected with 4.8 × 10^4 CFU C. neoformans strain H99 per mouse via the lateral tail vein at time zero. Treatment with the APX compounds was initiated at 1 h postinfection by i.p. administration and continued for 7 days, with 100-mg/kg ABT being administered orally 2 h prior to each APX compound dose. The correction factors for prodrug potencies versus the potencies of the active moieties were similar enough such that the same factor (1.3) was used for all APX compounds. Fungal burden data were log10 transformed and evaluated using Kruskal-Wallis tests with Dunn's multiple-comparison test for post hoc analysis (Prism software, v5; GraphPad Software, Inc., San Diego, CA). […] A P value of ≤0.05 was considered statistically significant (*, P ≤ 0.05; **, P ≤ 0.01; ***, P ≤ 0.001). The 95% confidence interval (CI) is presented.
(§3) C. neoformans strain H99 was grown in yeast extract-peptone-dextrose broth at 30°C on a shaker (220 rpm) for 24 h, centrifuged (1,980 relative centrifugal force), and washed twice in phosphate-buffered saline (PBS), resuspended in PBS, and quantified by hemacytometric count. Male CD-1 mice were infected with ∼5 × 10^4 CFU per mouse via lateral tail vein injection of 100 μl. Mice were weighed, and treatment was begun within 1 h after infection. Treatments were administered daily for 7 days. Mice were weighed daily and observed for acute and chronic adverse symptoms. Mice were sacrificed on day 8, and the brain and left lung were homogenized and cultured for quantitative determination of the tissue burden (number of CFU per gram of tissue). Tissues were homogenized for 25 s in 1 ml phosphate-buffered saline using two 6.5-mm steel beads and a Mini-Beadbeater 16 apparatus (Biospec Products, Inc., Bartlesville, OK) and serially diluted in 10-fold steps. Aliquots (100 μl) of homogenate were plated and incubated for 3 to 7 days at 37°C. Fungal burden data were log10 transformed and evaluated using Kruskal-Wallis tests with Dunn's multiple-comparison test for post hoc analysis (Prism software, v5; GraphPad Software, Inc., San Diego, CA). A P value of ≤0.05 was considered statistically significant.

[6] = Acute toxicity and survival observed in the CM model with ABT; assay type: in vivo, mouse; settings: i.p. dosing + ABT; dose then reduced to 60 mg/kg for surviving mice
Experimental: (§4) ABT at 100 mg/kg was administered orally to male CD-1 mice at 2 h prior to each APX compound dose. Mice were injected with 6.9 × 10^4 CFU of C. neoformans strain H99 per mouse via the lateral tail vein at time zero. Treatment with the APX compound was initiated at about 1 h postinfection by i.p. administration and continued for 7 days, with 100-mg/kg ABT being administered orally 2 h prior to each APX compound dose. […] Fungal burden data were log10 transformed and evaluated using Kruskal-Wallis tests with Dunn's multiple-comparison test for post hoc analysis (Prism software, v5; GraphPad Software, Inc., San Diego, CA). A P value of ≤0.05 was considered statistically significant (*, P ≤ 0.05; **, P ≤ 0.01). The 95% confidence interval (CI) is presented.
as §3

C. neoformans strain H99 [7] = assay: Murine cryptococcal meningitis model with ABT pretreatment (preliminary experiment); assay type: in vivo, Cryptococcus neoformans; settings: 7 days
Experimental: In a preliminary experiment, the efficacies of APX001, APX2096, and APX2097 were evaluated in the disseminated model of CM (n = 5 mice/cohort). ABT at 100 mg/kg was administered orally to male CD-1 mice 2 h prior to APX compound administration. Mice were injected with 6.9 × 10^4 CFU of C. neoformans strain H99 per mouse via the lateral tail vein at time zero. Treatment with each prodrug was initiated at about 1 h postinfection by i.p. administration and continued daily for 7 days, with 100-mg/kg ABT being administered orally 2 h prior to each APX compound dose.
as §4, §3

[8] = QD doses of 7.5, 20 and 60 mg/kg i.p. + ABT
[9] = QD doses of 7.5, 20 and 60 mg/kg i.p. + ABT, not significant
[10] = 34 mg/kg QD i.p. + ABT 100 mg/kg p.o.
[11] = 85 mg/kg QD i.p. + ABT 100 mg/kg p.o.

C[C@@H]1[C@H](O)[C@@H](C)/C=C/C=C/C=C/C=C/C=C/C=C/C=C/[C@H](O[C@@H]2O[C@H](C)[C@@H](O)[C@H](N)[C@@H]2O)C[C@@H]2O[C@](O)(C[C@@H](O)C[C@@H](O)[C@H](O)CC[C@@H](O)C[C@@H](O)CC(=O)O[C@H]1C)C[C@H](O)[C@H]2C(=O)O [AMB, amphotericin B, reference compound]
MIC (C. albicans 90028): 1 µg/mL
MIC (C. gattii; C. gattii isolate MYA-4093, read-out: MIC): 0.25 µg/mL
MIC (C. gattii; C. gattii isolate MYA-4094, read-out: MIC): 0.25 µg/mL
MIC (C. gattii; C. gattii isolate MYA-4560 (first listing, r17), read-out: MIC): 0.063 µg/mL
MIC (C. gattii; C. gattii isolate MYA-4560 (second listing, r21), read-out: MIC): 0.063 µg/mL
MIC (C. gattii; C. gattii isolate MYA-4561, read-out: MIC): 0.25 µg/mL
MIC (C. gattii; C. gattii isolate MYA-4562, read-out: MIC): 0.25 µg/mL
MIC (C. gattii; C. gattii isolate MYA-4563, read-out: MIC): 0.125 µg/mL
MIC (C. gattii; C. gattii isolate MYA-4877, read-out: MIC): 0.25 µg/mL
MIC (C. gattii; C. gattii isolate RSA-MW-3615 (FLC resistant), read-out: MIC): 0.25 µg/mL
MIC (C. gattii; Table 1, 50% growth inhibition for FLC, caspofungin and APX compounds, 100% for AMB, read-out: MIC, C. gattii WM276): 0.25 µg/mL
MIC90 (C. neoformans [1]): 2 µg/mL (≈ 2.16 µM)
MIC (A. fumigatus MYA3626): 1 µg/mL
MIC90 [2]: 0.25 µg/mL
MIC ([2]; read-out: Geometric mean MIC): 0.215 µg/mL
reduction of the lung tissue fungal burden vs untreated control (C. neoformans strain H99 [3]): 4.02 log10 CFU/g
MIC (C. neoformans [4]; 72 h, Table 1, 50% growth inhibition for FLC, caspofungin and APX compounds, 100% for AMB, 72 h, read-out: MIC, C. neoformans H99): 0.25 µg/mL
MIC (C. neoformans [4]; C. neoformans isolate 14116, read-out: MIC): 0.25 µg/mL
MIC (C. neoformans [4]; C. neoformans isolate 76484, read-out: MIC): 0.25 µg/mL
MIC (C. neoformans [4]; C. neoformans isolate DUMC 118.00 (FLC resistant), read-out: MIC): 0.25 µg/mL
MIC (C. neoformans [4]; C. neoformans isolate DUMC 158.03 (FLC resistant), read-out: MIC): 1 µg/mL
MIC (C. neoformans [4]; C. neoformans isolate MYA-4564, read-out: MIC): 0.25 µg/mL
MIC (C. neoformans [4]; C. neoformans isolate MYA-4565, read-out: MIC): 0.125 µg/mL
MIC (C. neoformans [4]; C. neoformans isolate MYA-4566, read-out: MIC): 0.25 µg/mL
MIC (C. neoformans [4]; C. neoformans isolate MYA-4567, read-out: MIC): 0.25 µg/mL
MIC (C. neoformans [4]; Table 2, C. neoformans isolate H99, read-out: MIC): 0.25 µg/mL

Nc1c(-c2cc(Cc3ccc(OCc4ccccc4)cc3)no2)ccc[n+]1COP(=O)([O-])O [APX2097]
reduction in brain fungal burden (C. neoformans strain H99 [5]; 60 mg/kg QD i.p. + ABT): 1.45 log10 CFU/g
reduction in lung fungal burden (C. neoformans strain H99 [5]; 60 mg/kg QD i.p. + ABT): 1.55 log10 CFU/g
dose-dependent change in brain fungal burden: increase end of range (C. neoformans strain H99 [5]; [8]): 0.24 log10 CFU/g
dose-dependent change in lung fungal burden: increase end of range (C. neoformans strain H99 [5]; [8]): 1.20 log10 CFU/g
dose-dependent change in brain fungal burden: reduction end of range (C. neoformans strain H99 [5]; [9]): 1.45 log10 CFU/g
dose-dependent change in lung fungal burden: reduction end of range (C. neoformans strain H99 [5]; [9]): 1.55 log10 CFU/g
Acute toxicity observed (day of treatment) [6]: day 6
reduction in brain fungal burden (C. neoformans strain H99 [7]; [10]): 1.66 log10 CFU/g
reduction in lung fungal burden (C. neoformans strain H99 [7]; [10]): 1.07 log10 CFU/g
reduction in brain fungal burden (C. neoformans strain H99 [7]; [11]): 2.72 log10 CFU/g
reduction in lung fungal burden (C. neoformans strain H99 [7]; [11]): 3.28 log10 CFU/g
